Results reported in US20230398130A1, “METHODS AND COMPOSITIONS FOR DIFFERENTIATING STEM CELLS” (Massachusetts Institute of Technology, priority 2020, published 2023).

How the values were obtained:
[1] = test system: ISC-enriched organoids; assay: Primary screen, 384-well 2.5-D organoid differentiation (ENR+CD, 6 days): basal lysozyme secretion (LYZ.NS); format: cell-based, murine; settings: for Dose.FC.LYZ.NS: ENR+CD 6 days, FC vs plate median; for Z.LYZ.NS: standard z score of FC; for Dose.FC.LYZ.NS (log 2 fold change) / Dose.FC.LYZ.NS (log 2 fold change, basal lysozyme secretion): vs plate median
Text: (§1) High-throughput screening.

[2] = test system: ISC-enriched organoids; assay: Primary screen, 384-well 2.5-D organoid differentiation (ENR+CD, 6 days): carbachol-induced lysozyme secretion (LYZ.S); format: cell-based, murine; settings: for Dose.FC.LYZ.S / Dose.FC.LYZ.S (log 2 fold change): primary screen; for Dose.FC.LYZ.S: ENR+CD 6 days, FC vs plate median; for Dose.FC.LYZ.S (log 2 fold change) / Dose.FC.LYZ.S (log 2 fold change, carbachol-induced lysozyme secretion): vs plate median
Text: as §1

[3] = test system: ISC-enriched organoids; assay: Primary screen, 384-well 2.5-D organoid differentiation (ENR+CD, 6 days, Target Selective Inhibitor Library, vs whole-plate median): ATP (CellTiter-Glo 3D, CTG); settings: for Dose.FC.CTG: ENR+CD 6 days, FC vs plate median; for Z.CTG: standard z score of FC; for Dose.FC.CTG (log 2 fold change) / Dose.FC.CTG (log 2 fold change, ATP): vs plate median

Compound | Dose.FC.LYZ.NS ([1]; primary screen, dose 0.08 uM) [log 2 fold change] | Z.LYZ.NS ([1]; primary screen, dose 0.08 uM) | Dose.FC.LYZ.NS ([1]; primary screen, dose 0.40 uM) [log 2 fold change] | Z.LYZ.NS ([1]; primary screen, dose 0.40 uM) | Dose.FC.LYZ.NS ([1]; primary screen, dose 2.00 uM) [log 2 fold change] | Z.LYZ.NS ([1]; primary screen, dose 2.00 uM) | Dose.FC.LYZ.NS ([1]; primary screen, dose 10.00 uM) [log 2 fold change] | Z.LYZ.NS ([1]; primary screen, dose 10.00 uM) | Dose.FC.LYZ.S ([2]; dose 0.08 uM) [log 2 fold change] | Dose.FC.LYZ.S ([2]; dose 0.40 uM) [log 2 fold change] | Dose.FC.LYZ.S ([2]; dose 2.00 uM) [log 2 fold change] | Dose.FC.LYZ.S ([2]; dose 10.00 uM) [log 2 fold change] | Dose.FC.CTG ([3]; primary screen, dose 0.08 uM) [log 2 fold change] | Z.CTG ([3]; primary screen, dose 0.08 uM) | Dose.FC.CTG ([3]; primary screen, dose 0.40 uM) [log 2 fold change] | Z.CTG ([3]; primary screen, dose 0.40 uM) | Dose.FC.CTG ([3]; primary screen, dose 2.00 uM) [log 2 fold change] | Z.CTG ([3]; primary screen, dose 2.00 uM) | Dose.FC.CTG ([3]; primary screen, dose 10.00 uM) [log 2 fold change] | Z.CTG ([3]; primary screen, dose 10.00 uM) | further results
O=C(c1ccc(F)cc1)N1CCC[C@H](c2nc(-c3ccc(F)cc3)no2)C1 [ADX-47273] | 0.269 | 2.346 | 0.053 | 0.457 | −0.033 | −0.286 | −0.036 | −0.311 | 0.147 | 0.147 | −0.039 | −0.070 | 0.115 | 0.274 | −0.034 | −0.082 | −0.210 | −0.501 | −0.039 | −0.094 | 
Cc1cc([C@@H](C)Nc2ccccc2C(=O)O)c2nc(N3CCOCC3)cc(=O)n2c1 [AZD6482] | 0.108 | 0.944 | 0.076 | 0.660 | −0.130 | −1.129 | −0.248 | −2.160 | 0.182 | 0.156 | −0.114 | −0.253 | 0.240 | 0.572 | 0.223 | 0.533 | −0.509 | −1.215 | −1.203 | −2.874 | 
CCn1c(N)c(C(=O)NC)c(=O)c2ccc(C#C[C@@](C)(O)COC)nc21 [SAR131675] |  |  |  |  |  |  |  |  |  |  |  |  |  |  |  |  |  |  |  |  | Z.LYZ.NS (standard z score) ([1]; Dose 0.08 uM, primary screen): 0.483; Dose.FC.LYZ.NS (log 2 fold change) ([1]; Dose 0.08 uM, primary screen): 0.055; Z.LYZ.NS (standard z score) ([1]; Dose 0.40 uM, primary screen): 0.774; Dose.FC.LYZ.NS (log 2 fold change) ([1]; Dose 0.40 uM, primary screen): 0.089; Z.LYZ.NS (standard z score) ([1]; Dose 2.00 uM, primary screen): 0.181; Dose.FC.LYZ.NS (log 2 fold change) ([1]; Dose 2.00 uM, primary screen): 0.021; Z.LYZ.NS (standard z score) ([1]; Dose 10.00 uM, primary screen): −0.766; Dose.FC.LYZ.NS (log 2 fold change) ([1]; Dose 10.00 uM, primary screen): −0.088; Dose.FC.LYZ.S (log 2 fold change) ([2]; Dose 0.08 uM): 0.148; Dose.FC.LYZ.S (log 2 fold change) ([2]; Dose 0.40 uM): 0.096; Dose.FC.LYZ.S (log 2 fold change) ([2]; Dose 2.00 uM): 0.026; Dose.FC.LYZ.S (log 2 fold change) ([2]; Dose 10.00 uM): 0.000; Z.CTG (standard z score) ([3]; Dose 0.08 uM, primary screen): 0.419; Dose.FC.CTG (log 2 fold change) ([3]; Dose 0.08 uM, primary screen): 0.175; Z.CTG (standard z score) ([3]; Dose 0.40 uM, primary screen): −0.201; Dose.FC.CTG (log 2 fold change) ([3]; Dose 0.40 uM, primary screen): −0.084; Z.CTG (standard z score) ([3]; Dose 2.00 uM, primary screen): 0.169; Dose.FC.CTG (log 2 fold change) ([3]; Dose 2.00 uM, primary screen): 0.071; Z.CTG (standard z score) ([3]; Dose 10.00 uM, primary screen): 0.149; Dose.FC.CTG (log 2 fold change) ([3]; Dose 10.00 uM, primary screen): 0.062
Cc1cc(C)nc(NS(=O)(=O)c2ccc(NC(=S)NC(=O)COc3ccc(Br)cc3Cl)cc2)n1 [ZCL278] |  |  |  |  |  |  |  |  |  |  |  |  |  |  |  |  |  |  |  |  | Z.LYZ.NS (standard z score) ([1]; dose 0.08 uM): −0.729; Dose.FC.LYZ.NS (log 2 fold change, basal lysozyme secretion) ([1]; dose 0.08 uM): −0.084; Z.LYZ.NS (standard z score) ([1]; dose 0.40 uM): −0.325; Dose.FC.LYZ.NS (log 2 fold change, basal lysozyme secretion) ([1]; dose 0.40 uM): −0.037; Z.LYZ.NS (standard z score) ([1]; dose 2.00 uM): 0.218; Dose.FC.LYZ.NS (log 2 fold change, basal lysozyme secretion) ([1]; dose 2.00 uM): 0.025; Z.LYZ.NS (standard z score) ([1]; dose 10.00 uM): 0.130; Dose.FC.LYZ.NS (log 2 fold change, basal lysozyme secretion) ([1]; dose 10.00 uM): 0.015; Dose.FC.LYZ.S (log 2 fold change, carbachol-induced lysozyme secretion) ([2]; dose 0.08 uM): −0.107; Dose.FC.LYZ.S (log 2 fold change, carbachol-induced lysozyme secretion) ([2]; dose 0.40 uM): 0.077; Dose.FC.LYZ.S (log 2 fold change, carbachol-induced lysozyme secretion) ([2]; dose 2.00 uM): −0.079; Dose.FC.LYZ.S (log 2 fold change, carbachol-induced lysozyme secretion) ([2]; dose 10.00 uM): −0.080; Z.CTG (standard z score) ([3]; dose 0.08 uM): −2.303; Dose.FC.CTG (log 2 fold change, ATP) ([3]; dose 0.08 uM): −0.964; Z.CTG (standard z score) ([3]; dose 0.40 uM): 0.044; Dose.FC.CTG (log 2 fold change, ATP) ([3]; dose 0.40 uM): 0.018; Z.CTG (standard z score) ([3]; dose 2.00 uM): −0.545; Dose.FC.CTG (log 2 fold change, ATP) ([3]; dose 2.00 uM): −0.228; Z.CTG (standard z score) ([3]; dose 10.00 uM): −0.247; Dose.FC.CTG (log 2 fold change, ATP) ([3]; dose 10.00 uM): −0.104
